{"source": "patent US12186290B2", "about": "“Methods for the treatment of glioblastoma multiforme” (priority 2017, dated 2025)", "experiment": "solubility in water", "assay_type": "physicochemical", "data": [{"compound": "NC(=O)C(CCC(=O)[O-])NC(=O)Cc1ccccc1.[Na+]", "note": "(stereo not shown) [Iso-PG, phenylacetylisoglutaminate sodium]", "values": [{"measurement": "solubility in water", "result": "soluble in water"}]}]}
